Read-outs that look alike come from different tables or passages of the source.
Legend:
Format in all cases: cell-based
[1] = tested on: HCV 2a Rluc cells (NS5A chimeric genotype 2a JFH-1 replicon with genotype 2a J6 strain NS5A gene, M31 present); assay: HCV replicon reporter assay, genotype 2a J6 (M31 present); conditions: Hepatitis C virus, read-out: 2a J6
In short: (§1)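 Replicons used: genotype 1b Con1, 1a H77, 2a JFH-1, and a 2a JFH-1 chimera with J6-strain NS5A (M31 present), all dicistronic.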

[2] = tested on: HCV 1b RLuc cells (dicistronic genotype 1b Con1 replicon, RLuc reporter); assay: microbe, parasite or virus in culture; conditions: Hepatitis C virus, read-out: 1b (nM)
In short: as §1

[3] = tested on: HCV 4a Rluc cells (NS5A chimeric genotype 1b Con1 replicon with genotype 4a NS5A gene); assay: microbe, parasite or virus in culture; conditions: Hepatitis C virus, read-out: 4a
In short: (§2)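 Replicon cells stably carrying the listed RLuc-encoding dicistronic replicons were seeded and treated with DMSO serial dilutions of compound (10 mM stocks) diluted into culture medium. After 72 h, cells were lysed and Renilla luciferase activity measured. EC50 was derived by non-linear regression.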

[4] = tested on: HCV 3a RLuc cells (NS5A chimeric genotype 1b Con1 replicon with consensus genotype 3a NS5A gene); assay: microbe, parasite or virus in culture; conditions: Hepatitis C virus
In short: as §2

[5] = tested on: HCV 2a JFH-1 Rluc cells (dicistronic genotype 2a JFH-1 replicon, RLuc reporter); assay: microbe, parasite or virus in culture; conditions: Hepatitis C virus, read-out: 2a JFH
In short: as §1

[6] = tested on: HCV 2b Rluc cells (NS5A chimeric genotype 2a JFH-1 replicon with genotype 2b MD2b-1 NS5A gene, M31 present); assay: microbe, parasite or virus in culture; conditions: Hepatitis C virus, read-out: 2b
In short: as §2

[7] = tested on: HCV 1a RLuc cells (dicistronic genotype 1a H77 replicon, RLuc reporter); assay: microbe, parasite or virus in culture; conditions: Hepatitis C virus, read-out: 1a
In short: as §1

[8] = read-out: 3a, genotype 3a NS5A chimeric replicon
[9] = genotype 2a JFH-1 RLuc replicon
[10] = read-out: 3a, genotype 3a replicon
[11] = read-out: 3a, genotype 3a NS5A chimeric 1b Con1 replicon
[12] = genotype 2a JFH-1 replicon, RLuc reporter
[13] = genotype 1a H77 replicon, RLuc reporter

SMILES | EC50 [1] | EC50 [2] | EC50 [3] | EC50 [4, 8] | EC50 [5, 9] | EC50 [6] | EC50 ([7]; genotype 1a H77 RLuc replicon) | EC50 [4, 10] | EC50 ([5]; genotype 2a JFH-1 replicon) | EC50 ([7]; genotype 1a replicon) | EC50 [4, 11] | EC50 [5, 12] | EC50 [7, 13]
O=C(N[C@@H](C(=O)N1CCC[C@H]1c1ncc(-c2cc3c4c(c2)OCc2cc(-c5cnc([C@@H]6CCCN6C(=O)[C@H](NC(=O)c6cncnc6)c6ccccc6)[nH]5)cc(c2-4)OC3)[nH]1)c1ccccc1)c1cncnc1 [Example 492] | > 44000 pM | 0.898 nM | 1 to 990 pM | 1 to 990 pM | 1 to 999 pM | 1000 to 44000 pM | 1000 to 44000 pM | – | – | – | – | – | –
CC[C@H](C)[C@H](NC(=O)OC)C(=O)N1CCC[C@H]1c1nc2ccc3cc(-c4ccc5c(ccc6nc([C@@H]7C[C@H](COC)CN7C(=O)[C@H](NC(=O)C7CC7)c7ccccc7)[nH]c65)c4)ccc3c2[nH]1 [Example 511] | 1 to 999 pM | 0.019 nM | 1 to 990 pM | 1 to 990 pM | 1 to 999 pM | 1 to 999 pM | 1 to 999 pM | – | – | – | – | – | –
COCCOC(=O)N[C@@H](C(=O)N1CCC[C@H]1c1ncc(-c2cc3c4c(c2)OCc2cc(-c5cnc([C@@H]6CCCN6C(=O)[C@H](NC(=O)OCCOC)c6ccccc6)[nH]5)cc(c2-4)OC3)[nH]1)c1ccccc1 [Example 448] | 1000 to 44000 pM | 0.459 nM | 1 to 990 pM | – | – | 1 to 999 pM | – | 1 to 990 pM | 1 to 999 pM | 1 to 999 pM | – | – | –
CN(C)C(=O)N[C@@H](C(=O)N1CCC[C@H]1c1ncc(-c2cc3c4c(c2)OCc2cc(-c5cnc([C@@H]6CCCN6C(=O)[C@H](NC(=O)N(C)C)c6ccccc6)[nH]5)cc(c2-4)OC3)[nH]1)c1ccccc1 [Example 431] | 1 to 999 pM | 0.436 nM | 1 to 990 pM | – | – | 1 to 999 pM | – | 1 to 990 pM | 1 to 999 pM | 1 to 999 pM | – | – | –
COC[C@H]1C[C@@H](c2nc3ccc4cc(-c5ccc6c(ccc7nc([C@@H]8CCCN8C(=O)[C@H](NC(=O)C8CC8)c8ccccc8)[nH]c76)c5)ccc4c3[nH]2)N(C(=O)[C@@H](NC(=O)OC)C(C)C)C1 [Example 512] | 1 to 999 pM | 0.035 nM | 1 to 990 pM | 1 to 990 pM | 1 to 999 pM | 1 to 999 pM | 1 to 999 pM | – | – | – | – | – | –
O=C(N[C@@H](C(=O)N1CCC[C@H]1c1ncc(-c2cc3c4c(c2)OCc2cc(-c5cnc([C@@H]6CCCN6C(=O)[C@H](NC(=O)c6ccccn6)c6ccccc6)[nH]5)cc(c2-4)OC3)[nH]1)c1ccccc1)c1ccccn1 [Example 482] | 1 to 999 pM | 0.034 nM | 1 to 990 pM | – | – | 1 to 999 pM | – | 1 to 990 pM | 1 to 999 pM | 1 to 999 pM | – | – | –
COC(=O)N[C@H](C(=O)N1C[C@@H](OC)C[C@H]1c1ncc(-c2ccc(-c3ccc4cc(-c5cnc([C@@H]6CCCN6C(=O)[C@H](NC(=O)OC)c6ccccc6)[nH]5)ccc4c3)cc2)[nH]1)C(C)C [Example 123] | > 44000 pM | 0.014 nM | 1 to 990 pM | – | – | > 44000 pM | – | – | – | – | 1 to 990 pM | 1 to 999 pM | 1 to 999 pM
CN(C)CC(=O)N[C@@H](C(=O)N1CCC[C@H]1c1ncc(-c2cc3c4c(c2)OCc2cc(-c5cnc([C@@H]6CCCN6C(=O)[C@H](NC(=O)CN(C)C)c6ccccc6)[nH]5)cc(c2-4)OC3)[nH]1)c1ccccc1 [Example 462] | 1000 to 44000 pM | 8.76 nM | 1000 to 4990 pM | – | – | 1000 to 44000 pM | – | 1 to 990 pM | 1 to 999 pM | 1000 to 44000 pM | – | – | –
CC(C)COC(=O)N[C@@H](C(=O)N1CCC[C@H]1c1ncc(-c2cc3c4c(c2)OCc2cc(-c5cnc([C@@H]6CCCN6C(=O)[C@H](NC(=O)OCC(C)C)c6ccccc6)[nH]5)cc(c2-4)OC3)[nH]1)c1ccccc1 [Example 487] | > 44000 pM | 0.027 nM | 1 to 990 pM | – | – | 1000 to 44000 pM | – | 1 to 990 pM | 1 to 999 pM | 1 to 999 pM | – | – | –
CC#Cc1cc(-c2cnc([C@@H]3CCCN3C(=O)[C@H](NC(=O)OC)c3ccccc3)[nH]2)ccc1-c1ccc2c(ccc3nc([C@@H]4CCCN4C(=O)[C@@H](NC(=O)OC)C(C)C)[nH]c32)c1 [Example 374] | 1 to 999 pM | 0.019 nM | 1 to 990 pM | – | – | 1000 to 44000 pM | – | 1 to 990 pM | 1 to 999 pM | 1 to 999 pM | – | – | –
O=C(N[C@@H](C(=O)N1CCC[C@H]1c1ncc(-c2cc3c4c(c2)OCc2cc(-c5cnc([C@@H]6CCCN6C(=O)[C@H](NC(=O)c6ccncn6)c6ccccc6)[nH]5)cc(c2-4)OC3)[nH]1)c1ccccc1)c1ccncn1 [Example 491] | 1 to 999 pM | 0.066 nM | 1 to 990 pM | 1 to 990 pM | 1 to 999 pM | 1 to 999 pM | 1 to 999 pM | – | – | – | – | – | –
COC(=O)N[C@H](C(=O)N1CCC[C@H]1c1ncc(-c2ccc3c(c2)COc2c-3ccc3c2ccc2nc([C@@H]4CCCN4C(=O)[C@H](NC(=O)OC)c4ccccc4)[nH]c23)[nH]1)C(C)C [Example 413] | 1000 to 44000 pM | 0.017 nM | 1 to 990 pM | – | – | 1000 to 44000 pM | – | 1 to 990 pM | 1 to 999 pM | 1 to 999 pM | – | – | –
COC(=O)N[C@H](C(=O)N1CCC[C@H]1c1ncc(-c2ccc3c(c2)COc2cc4c(cc2-3)CCc2nc([C@@H]3CCCN3C(=O)[C@H](NC(=O)C3CC3)c3ccccc3)[nH]c2-4)[nH]1)C(C)C [Example 503] | 1 to 999 pM | 0.041 nM | 1 to 990 pM | 1 to 990 pM | 1 to 999 pM | 1 to 999 pM | 1 to 999 pM | – | – | – | – | – | –
COC[C@H]1C[C@@H](c2nc3ccc4cc(-c5ccc(-c6cnc([C@@H]7CCCN7C(=O)[C@H](NC(=O)OC)c7ccccc7)[nH]6)cc5OCC(F)(F)F)ccc4c3[nH]2)N(C(=O)[C@@H](NC(=O)OC)C(C)C)C1 [Example 474] | 1000 to 44000 pM | 0.025 nM | 1 to 990 pM | – | – | 1000 to 44000 pM | – | 1 to 990 pM | 1 to 999 pM | 1 to 999 pM | – | – | –
COC(=O)N[C@H](C(=O)N1CCC[C@H]1c1ncc(-c2ccc3c(c2)COc2c-3ccc3c2ccc2nc([C@@H]4CCCN4C(=O)[C@@H](NC(=O)OC)C(C)C)[nH]c23)[nH]1)C(C)C [Example 400] | > 44000 pM | 0.017 nM | 1 to 990 pM | – | – | > 44000 pM | – | 1 to 990 pM | 1 to 999 pM | 1 to 999 pM | – | – | –
COC(=O)N[C@H](C(=O)N1[C@@H](C)CC[C@H]1c1ncc(-c2cc3c4c(c2)OCc2cc(-c5cnc([C@@H]6CC[C@H](C)N6C(=O)[C@@H](NC(=O)OC)C(C)C)[nH]5)cc(c2-4)OC3)[nH]1)C(C)C [Example 460] | 1000 to 44000 pM | 0.018 nM | 1 to 990 pM | – | – | 1 to 999 pM | – | 1 to 990 pM | 1 to 999 pM | 1 to 999 pM | – | – | –
COC(=O)N[C@H](C(=O)N1CCC[C@H]1c1nc2ccc3cc(-c4ccc5cc(-c6cnc([C@@H]7CCCN7C(=O)[C@H](NC(=O)OC)c7ccccc7)[nH]6)ccc5c4)ccc3c2[nH]1)C(C)C [Example 206] | 1000 to 44000 pM | 0.005 nM | 1 to 990 pM | – | – | > 44000 pM | – | – | – | – | 1 to 990 pM | 1 to 999 pM | 1 to 999 pM
O=C(N[C@@H](C(=O)N1CCC[C@H]1c1ncc(-c2cc3c4c(c2)OCc2cc(-c5cnc([C@@H]6CCCN6C(=O)[C@H](NC(=O)C6CCC6)c6ccccc6)[nH]5)cc(c2-4)OC3)[nH]1)c1ccccc1)C1CCC1 [Example 449] | 1 to 999 pM | 0.139 nM | 1 to 990 pM | – | – | 1 to 999 pM | – | 1 to 990 pM | 1 to 999 pM | 1 to 999 pM | – | – | –
CC[C@H](C)[C@H](NC(=O)OC)C(=O)N1CCC[C@H]1c1nc2ccc3cc(-c4ccc5c(ccc6nc([C@@H]7C[C@H](COC)CN7C(=O)[C@H](NC(=O)OC)c7ccccc7)[nH]c65)c4)ccc3c2[nH]1 [Example 509] | 1 to 999 pM | 0.028 nM | 1 to 990 pM | 1 to 990 pM | 1 to 999 pM | 1 to 999 pM | 1 to 999 pM | – | – | – | – | – | –
O=C(CC1CC1)N[C@@H](C(=O)N1CCC[C@H]1c1ncc(-c2cc3c4c(c2)OCc2cc(-c5cnc([C@@H]6CCCN6C(=O)[C@H](NC(=O)CC6CC6)c6ccccc6)[nH]5)cc(c2-4)OC3)[nH]1)c1ccccc1 [Example 465] | 1 to 999 pM | 0.176 nM | 1 to 990 pM | – | – | 1 to 999 pM | – | 1 to 990 pM | 1 to 999 pM | 1 to 999 pM | – | – | –
COC(=O)N[C@H](C(=O)N1CCC[C@H]1c1nc(Cl)c(-c2ccc(-c3ccc(-c4[nH]c([C@@H]5CCCN5C(=O)[C@@H](NC(=O)OC)C(C)C)nc4Cl)cc3)cc2)[nH]1)C(C)C [Example 352] | 1000 to 44000 pM | 0.011 nM | 1 to 990 pM | – | – | 1000 to 44000 pM | – | 1 to 990 pM | 1 to 999 pM | 1 to 999 pM | – | – | –

Source: patent publication US10344019B2 (priority 2010, dated 2019)
